# Measured values reported in patent publication US6448286B1, “Imino pyrrolidine derivatives useful as nitric oxide synthase inhibitors” (G.D. Searle & Co., priority 1993, dated 2002).
# Structures can show the parent of a compound that is named as a salt. Where two headings read alike, the source gives them in different places.
# Experiments:
# [1] = target: T1, Mouse inducible nitric oxide synthase (miNOS) (Mus musculus, UniProt P29477); assay: biochemical; settings: for IC50: read-out: iNOS; for iNOS, % @ 10 μM: 10 μM compound
# T1 construct: prepared from an extract of LPS-treated RAW 264.7 cells and partially purified by DEAE-Sepharose chromatography; endogenous in cells; host or cells: LPS-treated RAW 264.7 cells (mouse macrophage line)
# T1 sequence (P29477 whole entry): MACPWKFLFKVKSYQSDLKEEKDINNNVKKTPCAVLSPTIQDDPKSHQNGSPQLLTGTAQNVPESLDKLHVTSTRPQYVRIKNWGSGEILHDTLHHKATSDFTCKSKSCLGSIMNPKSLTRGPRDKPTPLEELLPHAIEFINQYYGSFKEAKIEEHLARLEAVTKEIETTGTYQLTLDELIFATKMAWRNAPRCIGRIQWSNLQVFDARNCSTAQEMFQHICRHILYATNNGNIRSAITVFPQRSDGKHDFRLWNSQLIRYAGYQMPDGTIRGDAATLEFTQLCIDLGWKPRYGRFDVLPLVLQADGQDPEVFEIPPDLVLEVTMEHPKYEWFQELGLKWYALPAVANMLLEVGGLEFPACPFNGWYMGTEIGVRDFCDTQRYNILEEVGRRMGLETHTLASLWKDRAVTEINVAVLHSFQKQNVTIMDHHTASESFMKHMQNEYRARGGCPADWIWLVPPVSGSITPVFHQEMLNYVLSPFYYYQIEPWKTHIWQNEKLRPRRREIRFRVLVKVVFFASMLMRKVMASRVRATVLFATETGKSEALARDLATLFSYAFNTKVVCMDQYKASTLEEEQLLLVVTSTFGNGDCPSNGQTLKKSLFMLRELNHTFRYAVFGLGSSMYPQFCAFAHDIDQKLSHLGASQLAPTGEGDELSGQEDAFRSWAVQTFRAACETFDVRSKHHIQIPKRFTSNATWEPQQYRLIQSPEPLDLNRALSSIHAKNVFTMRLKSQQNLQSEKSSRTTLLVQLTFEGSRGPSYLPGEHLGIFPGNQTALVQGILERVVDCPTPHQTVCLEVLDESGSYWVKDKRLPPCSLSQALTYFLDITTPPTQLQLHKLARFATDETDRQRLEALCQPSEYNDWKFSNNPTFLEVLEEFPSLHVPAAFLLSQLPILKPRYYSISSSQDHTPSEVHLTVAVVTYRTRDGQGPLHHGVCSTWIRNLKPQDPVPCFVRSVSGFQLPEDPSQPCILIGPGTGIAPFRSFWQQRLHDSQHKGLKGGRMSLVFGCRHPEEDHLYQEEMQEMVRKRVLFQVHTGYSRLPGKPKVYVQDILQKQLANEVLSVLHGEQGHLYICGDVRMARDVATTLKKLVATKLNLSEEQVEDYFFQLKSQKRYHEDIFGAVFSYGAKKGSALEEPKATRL
# [2] = target: T2, Rat brain constitutive nitric oxide synthase (rnNOS) (Rattus norvegicus, UniProt P29476); assay: Citrulline assay for nitric oxide synthase (cNOS); format: biochemical
# T2 construct: prepared from an extract of rat cerebellum and partially purified by DEAE-Sepharose chromatography; from tissue; host or cells: rat cerebellum
# T2 sequence (P29476 whole entry): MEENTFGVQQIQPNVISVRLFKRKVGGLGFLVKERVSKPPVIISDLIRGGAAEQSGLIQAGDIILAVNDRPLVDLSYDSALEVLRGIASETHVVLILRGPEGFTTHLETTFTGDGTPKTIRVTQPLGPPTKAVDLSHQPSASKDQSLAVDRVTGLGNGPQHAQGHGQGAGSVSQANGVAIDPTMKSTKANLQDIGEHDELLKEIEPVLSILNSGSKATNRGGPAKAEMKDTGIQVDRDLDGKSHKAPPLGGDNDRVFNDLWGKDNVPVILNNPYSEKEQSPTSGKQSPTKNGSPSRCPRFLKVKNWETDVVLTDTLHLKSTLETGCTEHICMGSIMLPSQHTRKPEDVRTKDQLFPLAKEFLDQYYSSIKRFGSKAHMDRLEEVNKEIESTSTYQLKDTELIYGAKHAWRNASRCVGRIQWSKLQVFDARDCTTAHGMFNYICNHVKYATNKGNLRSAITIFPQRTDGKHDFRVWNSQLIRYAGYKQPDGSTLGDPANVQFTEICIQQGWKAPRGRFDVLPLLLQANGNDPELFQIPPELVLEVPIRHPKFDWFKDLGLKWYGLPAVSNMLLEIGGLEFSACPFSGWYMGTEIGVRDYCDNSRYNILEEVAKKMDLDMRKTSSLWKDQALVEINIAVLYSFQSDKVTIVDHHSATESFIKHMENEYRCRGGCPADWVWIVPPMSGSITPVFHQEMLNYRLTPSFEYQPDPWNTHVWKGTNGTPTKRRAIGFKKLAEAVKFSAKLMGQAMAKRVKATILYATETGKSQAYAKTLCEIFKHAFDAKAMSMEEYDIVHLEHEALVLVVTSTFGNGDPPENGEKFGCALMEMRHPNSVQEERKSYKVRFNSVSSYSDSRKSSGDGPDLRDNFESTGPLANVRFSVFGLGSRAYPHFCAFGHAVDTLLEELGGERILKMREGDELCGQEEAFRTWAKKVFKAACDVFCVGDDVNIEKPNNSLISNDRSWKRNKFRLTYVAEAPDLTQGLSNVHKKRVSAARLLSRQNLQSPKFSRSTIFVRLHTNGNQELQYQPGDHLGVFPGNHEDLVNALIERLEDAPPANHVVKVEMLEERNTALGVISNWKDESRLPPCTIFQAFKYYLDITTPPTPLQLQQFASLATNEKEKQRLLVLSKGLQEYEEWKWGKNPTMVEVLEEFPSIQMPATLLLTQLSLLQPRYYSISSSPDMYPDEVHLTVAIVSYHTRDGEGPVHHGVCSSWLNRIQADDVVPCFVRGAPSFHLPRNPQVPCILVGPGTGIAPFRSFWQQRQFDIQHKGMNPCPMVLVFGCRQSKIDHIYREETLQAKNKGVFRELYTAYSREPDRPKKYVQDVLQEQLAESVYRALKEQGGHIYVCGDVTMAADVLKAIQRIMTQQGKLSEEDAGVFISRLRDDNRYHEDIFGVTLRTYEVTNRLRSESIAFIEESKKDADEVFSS
# Method: Nitric oxide synthase activity was measured by monitoring the conversion of [3H]-arginine to [3H]-citrulline. Mouse inducible nitric oxide synthase (miNOS) was prepared from an extract of LPS-treated RAW 264.7 cells and partially purified by DEAE-Sepharose chromatography. Rat brain constitutive nitric oxide synthase (rnNOS) was prepared from an extract of rat cerebellum and partially purified by DEAE-Sepharose chromatography. Enzyme and inhibitors were incubated at 37° C. for 15 minutes in a reaction volume of […] with the following components added to start the reaction: 50 mM Tris (pH 7.6), 1 mg/ml bovine serum albumin, 1 mM DTT, 2 mM CaCl2, 10 mM FAD, 10 mM tetrahydrobiopterin, […] L-arginine containing L-[2,3-3H]-arginine at 300 cpm/pmole and 1 mM NADPH. For constitutive NOS, 50 nM calmodulin was also added. The reaction was terminated by addition of cold stop buffer containing 10 mM EGTA, 100 mM HEPES, pH 5.5 and 1 mM citrulline. [3H]-Citrulline was separated by chromatography on Dowex 50W X-8 cation exchange resin and radioactivity determined with a liquid scintillation counter.
# [3] = system: intracellular iNOS in LPS-induced RAW 264.7 cells; assay: Raw cell nitrite assay; format: cell-based; settings: Mus musculus, read-out: Raw Cell IC50
# Method: RAW 264.7 cells are plated to confluency on a 96-well tissue culture plate grown overnight (17h) in the presence of LPS to induce NOS. […] The media was removed from each well and the cells are washed twice with Krebs-Ringers-Hepes (25 mM, pH 7.4) with 2 mg/ml glucose. The cells are then placed on ice and incubated with […] of buffer containing L-arginine (30 mM) +/− inhibitors for 1 h. The assay is initiated by warming the plate to 37° C. in a water bath for 1 h. […] To terminate the cellular assay, the plate of cells is placed on ice and the nitrite-containing buffer removed and analyzed for nitrite using a previously published fluorescent determination for nitrite. […] All values are the average of triplicate wells and are compared to a background-subtracted induced set of cells (100% value).
# [4] = system: LPS-induced increase in plasma nitrites; assay: In vivo assay: endotoxin (LPS)-induced plasma nitrites in rat; settings: Low Endotoxin in Rat Model
# Method: Rats were treated with an intraperitoneal injection of 10 mg/kg of endotoxin (LPS) with or without oral administration of the nitric oxice synthase inhibitors. Plasma nitrites were measured 5 hours post-treatment.
# IP is the abbreviation for 2-iminopiperidine. LPS is the abbreviation for endotoxin
# [5] = conversion of [3H]-arginine to [3H]-citrulline, 37° C., 15 minutes
# [6] = RAW264.7, nitrite production, RAW 264.7 cells, LPS-induced, 1 h at 37° C.
# [7] = printed as % only (inhibition not stated)
# [8] = 100 μM compound, printed as % only (inhibition not stated)
# [9] = conversion of [3H]-arginine to [3H]-citrulline, 50 nM calmodulin added, read-out: cNOS IC50
Compound,"IC50 [1, 5]",IC50 [2],"IC50 ([3]; RAW264.7, 1 h)",also measured
CN1CCCCC1=N (as salt: hydroiodid),–,–,–,melting point: 157 to 158 °C
"N=C1NCCS1 [Example 16, 2-Iminothiazolidine hydrochloride]",–,–,–,"IC50 [3, 6]: 4.3 µM"
"C=CCC1CCCCNC1=N (centres unmarked) [Example 107, hexahydro-3-(2-propenyl)-1H-azepin-2-imine, monohydrochloride]",3.8 µM,342 µM,15 µM,–
"N=C1NCCN1 [Example 15, 2-Iminoimidazolidine]",–,–,–,"iNOS, % @ 10 μM [1, 7]: 8% @ 10 μM"
"CC1CCC(O)C(=N)N1 (centres unmarked) (as salt: acetate) [Example 277, 3-hydroxy-2-imino-6-methylpiperidine acetate]",–,–,–,melting point: 158 to 160 °C
CN=C1CCCCCN1 (as salt: hydroiodid),–,–,–,melting point: 169 to 171 °C
"CC1CCCNC1=N (centres unmarked) (as salt: acetate) [Example 9, 2-imino-3-methylpiperidine acetate]",–,–,–,melting point: 88 to 100 °C
"NC1=NCCCO1 [Example 18, hydrochloride]",0.8 µM,6 µM,6 µM,–
"CC1CC(=N)NC(C)C1 (centres unmarked) (as salt: acetate) [Example 10, 2-imino-4,6-dimethylpiperidine acetate]",–,–,–,melting point: 163 to 166 °C
"NC1=NCCCCCC1 [Example 1, 2-Imino-heptamethyleneimine hydrochloride]",2.1 µM,13.3 µM,60 µM,–
"CN1CCCNC1=N [Example 23, 1-Methyl-2-iminotetrahydropyrimidine]",–,–,–,"iNOS, % @ 10 μM [1, 7]: 41% @ 10 μM"
"N=C1NCCO1 [Example 19, 2-Iminooxazolidine]",–,–,–,"iNOS, % @ 10 μM [1, 7]: 42% @ 10 μM"
"C=CCC1CCCCC(=N)N1.Cl (centres unmarked) [Example 108, hexahydro-7-(2-propenyl)-1H-azepin-2-imine, monohydrochloride]",–,19 µM,0.57 µM,"ED50 ([4]; po, administered p.o.): 3.7 mg/kg"
"Cl.N=C1CCc2ccccc2N1 [Example 164, 1,2,3,4-tetrahydroquinolin-2-imine, monohydrochloride]",–,–,–,"iNOS, % @ 100 μM [1, 8]: 60% @ 100 μM; cNOS, % @ 100 μM [2, 8]: 74% @ 100 μM"
"CC1CCNC1=N (centres unmarked) [Example 4, 2-Imino-3-methyltetramethyleneimine hydriodide]",4.6 µM,2.4 µM,14 µM,–
"CC1CCC(=N)NC1 (centres unmarked) (as salt: acetate) [Example 7, 2-Imino-5-methylpiperidine acetate]",–,–,–,melting point: 175 to 178 °C
"Cl.N=C1CCCCC(C2CCCCC2)N1 (centres unmarked) [Example 96, 7-cyclohexyl-hexahydro-1H-azepin-2-imine, monohydrochloride]",9.3 µM,1400 µM,–,"ED50 ([4]; po, administered p.o.): 3.8 mg/kg"
"Cl.N=C1NC[C@H]2CCCC[C@H]12 (relative stereo) [Example 173, (trans)-octahydro-2H-isoindol-1-imine, monohydrochloride]",–,–,–,"iNOS, % @ 10 μM [1, 7]: 42% @ 10 μM"

Compound,"IC50 [1, 5]",IC50 [2],"IC50 ([3]; RAW264.7, 1 h)",also measured
Cl.N=C1CC(C(=O)O)CCN1 (centres unmarked),–,–,–,melting point: 230 to 234 °C
"CC1CCNC(=N)CC1 (centres unmarked) [Example 70, hexahydro-5-methyl-1H-azepin-2-imine, monohydrochloride]",5.9 µM,32 µM,24 µM,–
"CCCCC1CCCCC(=N)N1.Cl (centres unmarked) [Example 188, 7-butylhexahydro-1H-azepin-2-imine, monohydrochloride]",0.55 µM,106 µM,0.65 µM,"ED50 ([4]; po, administered p.o.): 3.7 mg/kg"
"CC1(C)CCN=C(N)C1 [Example 170, 4,4-dimethylpiperidin-2-imine, monohydrochloride]",–,53 µM,–,–
"Cl.N=C1CCC2=C(CCCC2)N1 [Example 3, 3,4,5,6,7,8-hexahydro-2[1H]-quinolineimine hydroiodide]",–,–,–,"iNOS, % @ 10 μM [1, 7]: 43% * 10 μM; melting point: 150 to 155 °C"
"NC1=NC(c2ccccc2)CCCC1 (centres unmarked) [Example 192, hexahydro-7-phenyl-1H-azepin-2-imine, monohydrochloride]",–,179 µM,31 µM,IC50 [1]: 12 µM
"N=C1CCCCCCCN1 [Example 2, 2-Imino-octamethyleneimine hydrochloride]",2.2 µM,9.9 µM,> 1000 µM,–
"CC1CCN=C(N)C1 (centres unmarked) [Example 6, 2-Imino-4-methylpiperidine acetate]",–,–,–,IC50 [1]: 0.055 µM
"CCC1CCCCNC1=N (centres unmarked) [Example 60, 3-ethyl-hexahydro-1H-azepin-2-imine, monohydrochloride]",–,32 µM,3.5 µM,–
"N=C1NCCCC1O (centres unmarked) (as salt: acetate) [Example 11, 2-Imino-3-hydroxypiperidine acetate]",–,–,–,melting point: 128 to 130 °C
"CCC1NC(=N)CC1C (centres unmarked) [Example 217, 5-ethyl-4-methylpyrrolidin-2-imine, monohydrochloride]",0.17 µM,1.6 µM,0.25 µM,–
CN1CCCCCC1=N (as salt: hydroiodid),–,–,–,melting point: 137 to 139 °C
"NC1=NCCC1 [Example 12, 2-iminopyrrolidine hydrochloride]",–,32 µM,1.8 µM,IC50 [1]: 5.1 µM
"NC1=NCCCN1 [Example 14, 2-Iminotetrahydropyrimidine hemihydrosulfate]",–,–,> 1000 µM,"IC50 [2, 9]: 23 µM"
"CCCC1CCCCC(=N)N1.Cl (centres unmarked) [Example 114, hexahydro-7-propyl-1H-azepin-2-imine, monohydrochloride]",–,7.8 µM,0.55 µM,"ED50 ([4]; po, administered p.o.): 3.4 mg/kg"
"N=C1N[C@H]2[C@H](CS[C@H]2CCCCC(=O)O)N1 [Example 21, 2-Iminobiotin]",40 µM,–,> 1000 µM,"IC50 [2, 9]: 500 µM"
"CCC(CC)CC1CCCCC(=N)N1.Cl (centres unmarked) [Example 198, 7-(2-ethylbutyl)hexahydro-1H-azepin-2-imine, monohydrochloride]",2.1 µM,652 µM,3.3 µM,ED50 ([4]; determined using iv infusion): 5 mg/kg

# Continued, in another order:
"IC50 [1, 5]",Compound,IC50 [2],"IC50 ([3]; RAW264.7, 1 h)",also measured
7 µM,"C[C@@H]1CCCC(N)=NC1 [Example 90, hexahydro-6R-methyl-1H-azepin-2-imine, monohydrochloride]",46 µM,–,–
1.5 µM,"CC1CCCN=C1N (centres unmarked) [Example 9, 2-imino-3-methylpiperidine acetate]",2.01 µM,–,–
0.92 µM,"N=C1NCCCC1O (centres unmarked) [Example 11, 2-Imino-3-hydroxypiperidine acetate]",2.77 µM,–,–
0.6 µM,"N=C1CCCCN1 [Example 13, 2-Iminopiperidine hydrochloride]",2 µM,14 µM,–
30 µM,"CCOC(=O)CCCC[C@@H]1SC[C@@H]2NC(=N)NC21 (some centres unmarked) [Example 22, 2-Iminobiotin ethyl ester]",1300 µM,–,"IC50 [3, 6]: > 1000 µM"
1 µM,"N=C1NCC(CCl)O1 (centres unmarked) [Example 20, 5-Chloromethyl-2-iminooxazolidine]",5 µM,–,"IC50 [3, 6]: 160 µM"
2 µM,"CC1CCC(N)=NC1 (centres unmarked) [Example 7, 2-Imino-5-methylpiperidine acetate]",13.3 µM,–,–
0.043 µM,"CC1CC(N)=NC(C)C1 (centres unmarked) [Example 10, 2-imino-4,6-dimethylpiperidine acetate]",–,–,"IC50 [2, 9]: 0.127 µM"
1.4 µM,"CC1CN=C(N)C1 (centres unmarked) [Example 182, 4-methylpyrrolidin-2-imine, monohydrochloride]",14 µM,–,–
0.8 µM,"NC1=NCCCS1 [Example 17, 2-Imino-3-thiapiperidine hydrochloride]",2.7 µM,28 µM,–
3.2 µM,"CC1CCC(N)=N1 (centres unmarked) [Example 5, 2-Imino-5-methyltetramethyleneimine hydriodide]",9.4 µM,–,"IC50 [3, 6]: 18 µM"
0.16 µM,"CC1CCCC(=N)N1.Cl (centres unmarked) [Example 8, 2-Imino-6-methylpiperidine hydrochloride]",0.99 µM,–,melting point: 160 to 162 °C
